The values that follow come from US20220273617A1, “ANTI-CANCER, ANTI-INFLAMMATORY AND IMMUNOMODULATORY ACTIVITY OF R-CARVEDILOL AND METHODS OF USE” (priority 2021, published 2022).

The structures appear in SMILES notation. “Also recorded” adds a separate entry of the source.

For series [1] the following is noted: oral 1.6 mg/kg, mice; cited from earlier work.
Series [2] has as its system UV induced skin damage and inflammation. As to the kind of experiment: Acute UV induced skin damage and inflammation model. Format: in vivo, mouse. Conditions: topical 0.1, 1 or 10 μM in acetone immediately after single UV 300 mJ/cm^2. The method, then:
In an acute UV induced skin damage and inflammation model induced with a single dose of UV (300 mJ/cm^2), topical treatment with R-carvedilol (0.1, 1 or 10 μM in acetone as a vehicle), applied immediately after the UV, attenuated mouse skin edema and reduced epidermal thickening, Ki-67 staining, COX-2 protein, IL-6 and IL-10 mRNA levels.

Series [3] has as its system UV-induced immunosuppression. Kind of series: UV-induced suppression of contact hypersensitivity (CHS) to DNFB. The class given is in vivo, SKH-1 hairless mice. As to conditions: single dose i.p. 2 h before UV 224 mJ/cm^2; carvedilol 1 and 10 mg/kg, R-carvedilol 10 mg/kg. How it is done: Mice were treated with NS398, CAR or R-CAR (L: 1 mg/kg; H: 10 mg/kg) i.p. 2 hr before UV exposure (224 mJ/cm^2). 24 h after, mice were sensitized with DNFB on back. After 7 days, the right ears were challenged with DNFB. 24 h after, 5 mm punch biopsies were obtained from both ears and weighed. The data are the mean±SE difference in ear biopsy weights (right-left) from n=5 mice (male). *: P<0.05; **: P<0.01.
The data listed are the mean±SE difference in ear biopsy weights (Right-Left) from n=5 mice (male). *: P<0.05; **:P<0.01.
Immunosuppression induced by UV radiation is commonly investigated using the contact hypersensitivity (CHS) response to contact allergens such as the hapten dinitrofluorobenzene (DNFB). […] Thus, carvedilol's skin cancer preventive activity may be partly attributed to its inhibitory effects on UV-induced immunosuppression.
The mice were pretreated with single dose of R-carvedilol (10 mg/kg, i.p.) two hours before UV radiation, and were subject to UV exposure. […] Thus, R-carvedilol, although not a β-blocker, similarly reverses UV-induced immunosuppression.
CHS assay was used to evaluate the effects of a topical delivery system of carvedilol developed by us, named “T-CAR”, on UV-induced immunosuppression. […]

As to `COc1ccccc1OCCNC[C@@H](O)COc1cccc2[nH]c3ccccc3c12` [R-carvedilol], the “heart rate or blood pressure” value in series [1] was “did not alter heart rate or blood pressure”. For the same compound, in series [2], the COX-2 protein result is given as “reduced”, the “IL-6 mRNA levels” value is given as “reduced”, the “IL-10 mRNA levels” value is “reduced” and the Ki-67 staining entry is reported as “reduced”. For the same compound, in series [2], the epidermal thickening entry is given as “reduced” and the mouse skin edema result is “attenuated”. The “UV-induced CHS suppression” value in series [3] is “reversed UV-induced suppression of CHS; also recorded: significantly reversed UV-induced CHS suppression”.
